Results published in patent US20230346831A1, “METHODS FOR TREATING […] USING LOW DOSE CARBON MONOXIDE” (priority 2020, published 2023).
Where “and” joins values, the source holds several entries; their conditions need not be identical. Equal values may be shown once.

Tested on: MCF7/TGL cells
Experiment: metabolomic assay (polar metabolite profiling, mass spectrometry)
Type: cell-based, human
Settings: MCF7/TGL cells treated with CO, replicates CO 1-3
Description: Extraction and analysis were performed with the same parameters as the method disclosed in FIG. 7.
7 × 10^6 cells were seeded in 10-cm cell culture plates with DMEM containing 10% FBS, 0.2 mM L-glutamine and 1% penicillin/streptomycin. Additionally, MCF7/TGL/pQ was cultured in media containing 0.5 µgml^-1 puromycin and 25 mM HEPES. After 16 hours of incubation, metabolites were extracted from the cells using 80% methanol. The remaining steps were carried out by Weill Cornell Medicine Proteomics and Metabolomics Core Facility according to M. D. Goncalves et al., Proc Natl Acad Sci USA 115, E743-E752 (2018). All data analyses were done using MetaboAnalyst 4.0 (www.metaboanalyst.ca/).
To investigate whether 250 ppm CO mimics hypoxia, the HiF1α protein levels were examined in CO treated MCF7/TGL and MDA-MB-231/TGL cells. […] To determine whether 250 ppm CO affects metabolism, polar metabolites were profiled using two breast cancer cell lines, MCF7/TGL and MDA-MB-231/TGL (FIGS. 7-9).

SMILES: [C-]#[O+] [CO, Carbon monoxide]
- Peak Height 2-Ketobutyric acid (HMDB00005): 4,031,318 and 4,391,029 and 5,247,754
- Peak Height Deoxyuridine (HMDB00012): 4,052 and 3,614 and 4,205
- Peak Height Carnosine (HMDB00033): 2,611,797 and 2,457,728 and 2,635,558
- Peak Height Adenine (HMDB00034): 319,396 and 405,129 and 608,706
- Peak Height Dihydrobiopterin (HMDB00038): 37,904,750 and 45,778,470 and 54,551,140
- Peak Height Betaine (HMDB00043): 211,641,600 and 205,281,000 and 256,902,700
- Peak Height Ascorbic acid (HMDB00044): 1,179,857 and 2,029,092 and 5,154,497
- Peak Height Adenosine monophosphate (HMDB00045): 595,508 and 473,948 and 497,428
- Peak Height Adenosine (HMDB00050): 14,622 and 14,037 and 23,296
- Peak Height Argininosuccinic acid (HMDB00052): 180,070 and 286,271 and 472,100
- Peak Height L-Carnitine (HMDB00062): 275,929,100 and 289,061,800 and 291,180,600
- Peak Height Creatine (HMDB00064): 394,311,900 and 394,104,400 and 478,205,800
- Peak Height cis-Aconitic acid (HMDB00072): 11,654,680 and 13,826,410 and 17,813,720
- Peak Height Cytidine triphosphate (HMDB00082): 248,084 and 155,802 and 221,285
- Peak Height Glycerophosphocholine (HMDB00086): 299,915,900 and 348,438,900 and 459,259,100
- Peak Height Cytidine (HMDB00089): 104,165 and 69,105 and 173,745
- Peak Height Dimethylglycine (HMDB00092): 6,279,555 and 7,567,884 and 7,137,536
- Peak Height Citric acid (HMDB00094): 83,266,830 and 83,863,100 and 100,258,700
- Peak Height Cytidine monophosphate (HMDB00095): 93,671 and 115,860 and 141,423
- Peak Height Choline (HMDB00097): 183,705,300 and 191,547,400 and 211,305,800
- Peak Height L-Cystathionine (HMDB00099): 13,082,840 and 16,491,010 and 22,978,520
- Peak Height D-Glucose (HMDB00122): 24,253,400 and 27,009,740 and 49,287,950
- Peak Height Glycine (HMDB00123): 97,069,490 and 60,912,580 and 81,769,040
- Peak Height Fructose 6-phosphate (HMDB00124): 689,466 and 869,013 and 1,084,547
- Peak Height Glutathione (HMDB00125): 166,253,500 and 185,818,800 and 224,175,500
- Peak Height Glycerol3-phosphate (HMDB00126): 242,288 and 358,077 and 520,107
- Peak Height D-Glucuronic acid (HMDB00127): 193,639 and 229,627 and 245,391
- Peak Height Fumaric acid (HMDB00134): 5,149,166 and 6,086,688 and 8,204,115
- Peak Height L-Glutamic acid (HMDB00148): 344,240,500 and 392,276,300 and 563,702,200
- Peak Height Hypoxanthine (HMDB00157): 207,108 and 78,064 and 86,812
- Peak Height L-Tyrosine (HMDB00158): 58,933,980 and 62,662,290 and 101,701,400
- Peak Height L-Phenylalanine (HMDB00159): 287,943,500 and 304,931,600 and 425,257,300
- Peak Height L-Alanine (HMDB00161): 24,164,680 and 26,271,210 and 37,606,940
- Peak Height L-Proline (HMDB00162): 456,504,200 and 470,321,900 and 561,265,500
- Peak Height L-Threonine (HMDB00167): 103,403,600 and 114,367,100 and 144,573,600
- Peak Height L-Asparagine (HMDB00168): 42,196,450 and 47,225,620 and 55,751,170
- Peak Height L-Isoleucine (HMDB00172): 339,480,000 and 333,493,200 and 481,854,600
- Peak Height Inosinic acid (HMDB00175): 22,764 and 28,902 and 46,283
- Peak Height L-Histidine (HMDB00177): 295,632,700 and 322,360,800 and 456,145,200
- Peak Height L-Lysine (HMDB00182): 41,138,540 and 40,717,620 and 74,426,720
- Peak Height Alpha-Lactose (HMDB00186): 261,525 and 290,474 and 303,327
- Peak Height L-Serine (HMDB00187): 22,682,210 and 24,881,370 and 27,375,240
- Peak Height L-Lactic acid (HMDB00190): 135,248,600 and 168,348,200 and 288,458,500
- Peak Height L-Aspartic acid (HMDB00191): 12,945,220 and 18,829,880 and 30,552,150
- Peak Height L-Acetylcarnitine (HMDB00201): 191,662,400 and 208,376,400 and 217,883,700
- Peak Height N6-Acetyl-L-lysine (HMDB00206): 126,221 and 143,548 and 210,190
- Peak Height Oxoglutaric acid (HMDB00208): 24,674,800 and 27,743,170 and 32,411,680
- Peak Height Pantothenic acid (HMDB00210): 49,604,040 and 57,015,540 and 93,443,310
- Peak Height Myoinositol (HMDB00211): 1,493,285 and 1,572,114 and 2,893,583
- Peak Height Ornithine (HMDB00214): 3,323,027 and 3,678,113 and 4,669,739
- Peak Height NADP (HMDB00217): 35,994 and 44,669 and 56,121
- Peak Height Orotic acid (HMDB00226): 107,743 and 166,715
- Peak Height Thiamine (HMDB00235): 13,320,550 and 15,145,370 and 21,979,980
- Peak Height Pyruvic acid (HMDB00243): 6,830,386 and 7,616,124 and 9,628,515
- Peak Height Riboflavin (HMDB00244): 8,515 and 36,944
- Peak Height Taurine (HMDB00251): 213,761,300 and 213,696,600 and 188,154,600
- Peak Height Succinic acid (HMDB00254): 3,099,054 and 3,989,967 and 6,160,312
- Peak Height Thymine (HMDB00262): 7,867,191 and 9,149,847 and 12,133,270
- Peak Height Phosphoenolpyruvic acid (HMDB00263): 3,181,575 and 5,081,852 and 6,959,276
- Peak Height Pyroglutamic acid (HMDB00267): 70,921,790 and 82,143,660 and 125,886,000
- Peak Height Thymidine (HMDB00273): 18,849 and 10,836 and 11,271
- Peak Height Uridine triphosphate (HMDB00285): 972,321 and 740,370 and 1,159,635
- Peak Height Uridine diphosphate glucose (HMDB00286): 3,510,195 and 3,063,631 and 4,862,560
- Peak Height Uridine 5′-monophosphate (HMDB00288): 35,559 and 34,351 and 45,597
- Peak Height Uric acid (HMDB00289): 2,364,329 and 2,512,157 and 4,422,182
- Peak Height Uridine diphosphate-N-acetylglucosamine (HMDB00290): 38,715,250 and 42,157,110 and 45,820,290
- Peak Height Xanthine (HMDB00292): 3,106,304 and 2,715,740 and 5,495,149
- Peak Height Uridine 5′-diphosphate (HMDB00295): 297,075 and 234,752 and 314,015
- Peak Height Uridine (HMDB00296): 51,402 and 29,724 and 61,581
- Peak Height Uracil (HMDB00300): 621,176 and 684,209 and 956,261
- Peak Height Urocanicacid (HMDB00301): 330,874 and 577,556 and 198,149
- Peak Height 3-Hydroxymethylglutaric acid (HMDB00355): 5,766,106 and 4,010,368 and 3,996,699
- Peak Height Allantoin (HMDB00462): 1,483,552 and 1,936,773 and 3,316,178
- Peak Height Caprylic acid (HMDB00482): 3,978,947 and 2,718,335 and 2,586,172
- Peak Height Aminoadipic acid (HMDB00510): 5,713,433 and 5,346,300 and 7,560,774
- Peak Height L-Arginine (HMDB00517): 64,328,130 and 65,745,300 and 95,595,630
- Peak Height Adenosine triphosphate (HMDB00538): 1,853,382 and 1,283,500 and 2,002,755
- Peak Height Creatinine (HMDB00562): 20,992,210 and 21,746,470 and 37,545,350
- Peak Height Galactonic acid (HMDB00565): 8,090,935 and 11,406,370 and 14,258,950
- Peak Height D-Arabitol (HMDB00568): 250,315 and 263,626 and 418,856
- Peak Height D-2-Hydroxyglutaric acid (HMDB00606): 460,608 and 570,887 and 905,587
- Peak Height Gluconic acid (HMDB00625): 6,277,480 and 8,930,573 and 14,396,540
